Reference: ChEMBL document CHEMBL1135234, “2-Arylindoles as gonadotropin releasing hormone (GnRH) antagonists: optimization of the tryptamine side chain” (Bioorg Med Chem Lett, 2002)
Where “and” joins values, the source holds several entries; their conditions need not be identical. Equal entries are not always repeated.

Assays:
[1] = target: T1, Gonadotropin-releasing hormone receptor (Homo sapiens, UniProt P30968); assay: Inhibition of gonadotropin-releasing hormone receptor-stimulated [3H]inositol phosphate hydrolysis; assay type: functional
T1 sequence (P30968 whole entry): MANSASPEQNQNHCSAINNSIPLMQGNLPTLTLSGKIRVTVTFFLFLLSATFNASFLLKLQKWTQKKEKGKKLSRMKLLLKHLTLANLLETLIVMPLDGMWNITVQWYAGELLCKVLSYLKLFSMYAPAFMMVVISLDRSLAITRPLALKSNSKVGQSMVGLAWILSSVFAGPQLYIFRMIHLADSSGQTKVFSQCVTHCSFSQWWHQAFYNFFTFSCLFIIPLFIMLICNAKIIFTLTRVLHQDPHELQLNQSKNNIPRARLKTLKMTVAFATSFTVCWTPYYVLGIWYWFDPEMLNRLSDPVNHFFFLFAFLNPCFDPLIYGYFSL

[2] = target: T1, Gonadotropin-releasing hormone receptor; assay: Inhibition of [125I]buserelin binding to human pituitary gonadotropin-releasing hormone receptor
[3] = (§1) Oral bioavailability in dog; assay type: ADME, organism-based, Canis lupus familiaris; conditions: in vivo
[4] = target: T1, Gonadotropin-releasing hormone receptor; assay: Compound was evaluated for the inhibition of Gonadotropin-releasing hormone receptor-stimulated [3H]inositol phosphate hydrolysis using functional assay
Cytochrome P450 3A4 [5] = target: T2, Cytochrome P450 3A4 (Homo sapiens, UniProt P08684); assay: Inhibition of cytochrome P450 3A4 enzyme
[6] = Half life in dog was determined; assay type: ADME, organism-based, Canis lupus familiaris; conditions: in vivo
[7] = Plasma clearance in dog was determined; assay type: ADME, organism-based, Canis lupus familiaris; conditions: read-out: Clp
Cytochrome P450 3A4 [8] = target: T2, Cytochrome P450 3A4; assay: Inhibition of cytochrome P450 3A4 enzyme; Range 1-2 uM; assay type: ADME
Canis familiaris [9] = assay: as §1; assay type: ADME, organism-based, Canis lupus familiaris; conditions: in vivo
Canis familiaris [10] = assay: Compound was tested for the oral bioavailability in dog; No availability; assay type: ADME, organism-based, Canis lupus familiaris; conditions: in vivo

T2 sequence (P08684 whole entry): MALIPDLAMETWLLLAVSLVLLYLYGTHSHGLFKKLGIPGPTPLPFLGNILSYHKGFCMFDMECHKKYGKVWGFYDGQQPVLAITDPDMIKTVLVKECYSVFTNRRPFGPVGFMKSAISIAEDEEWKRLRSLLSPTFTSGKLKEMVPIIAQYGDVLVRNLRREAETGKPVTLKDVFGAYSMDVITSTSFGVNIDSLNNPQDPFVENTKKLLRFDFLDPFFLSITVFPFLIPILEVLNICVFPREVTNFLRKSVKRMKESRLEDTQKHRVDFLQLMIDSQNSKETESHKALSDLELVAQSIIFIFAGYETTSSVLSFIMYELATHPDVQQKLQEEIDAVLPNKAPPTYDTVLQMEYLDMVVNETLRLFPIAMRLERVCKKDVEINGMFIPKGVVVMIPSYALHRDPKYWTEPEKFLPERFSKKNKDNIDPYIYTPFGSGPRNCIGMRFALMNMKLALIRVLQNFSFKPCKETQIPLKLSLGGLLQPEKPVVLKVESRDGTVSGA

Row | Compound | IC50 [1] | IC50 [2] | also measured
1 | Cc1cc(C)cc(-c2[nH]c3ccc(C(C)(C)C(=O)N4C5CCC4CC5)cc3c2[C@H](C)CNCCc2c[nH]c3ncnc-3c2)c1 | 2.5 nM | 0.4 nM | –
2 | Cc1cc(C)cc(-c2[nH]c3ccc(C(C)(C)C(=O)N4C5CCC4CC5)cc3c2[C@H](C)CNCCCCc2cnc3nc[nH]c3c2)c1 | 4.6 nM | 0.4 nM | –
3 | Cc1cc(C)cc(-c2[nH]c3ccc(C(C)(C)C(=O)N4C5CCC4CC5)cc3c2[C@H](C)CNCCCc2cnc3nccnc3c2)c1 | 10.9 nM | 0.8 nM | –
4 | Cc1cc(C)cc(-c2[nH]c3ccc(C(C)(C)C(=O)N4C5CCC4CC5)cc3c2[C@H](C)CNCCCc2cccc3ncccc23)c1 | 131 nM | 2.4 nM | –
5 | Cc1cc(C)cc(-c2[nH]c3ccc(C(C)(C)C(=O)N4C5CCC4CC5)cc3c2[C@H](C)CNCCCCc2ccnc3nc(C)ccc23)c1 | 8.4 nM | 0.6 nM | –
6 | Cc1cc(C)cc(-c2[nH]c3ccc(C(C)(C)C(=O)N4C5CCC4CC5)cc3c2[C@H](C)CNCCCCc2cccc3ncccc23)c1 | 46.4 nM | 1.9 nM | –
7 | Cc1cc(C)cc(-c2[nH]c3ccc(C(C)(C)C(=O)N4C5CCC4CC5)cc3c2[C@H](C)CNCCCc2ccc3cnccc3c2)c1 | 4.6 nM | 0.7 nM | –
8 | Cc1cc(C)cc(-c2[nH]c3ccc(C(C)(C)C(=O)N4C5CCC4CC5)cc3c2[C@H](C)CNCCCc2ccc3ncccc3c2)c1 | 17.8 nM | 3 nM | –
9 | Cc1cc(C)cc(-c2[nH]c3ccc(C(C)(C)C(=O)N4C5CCC4CC5)cc3c2[C@H](C)CNCCCc2cncc3ccccc23)c1 | 7.5 nM | 2.1 nM | –
10 | Cc1cc(C)cc(-c2[nH]c3ccc(C(C)(C)C(=O)N4C5CCC4CC5)cc3c2[C@H](C)CNCCc2cccc3cnccc23)c1 | 34.7 nM | 0.6 nM | half-life [6]: 1.9 h; bioavailability [3]: 10%; clearance [7]: 5.8 mL/min/kg; IC50 (Cytochrome P450 3A4 [8]): 1000 nM
11 | Cc1cc(C)cc(-c2[nH]c3ccc(C(C)(C)C(=O)N4C5CCC4CC5)cc3c2[C@H](C)CNCCCCc2cccc3cnccc23)c1 | 6.8 nM | 1.5 nM | half-life [6]: 1 h; bioavailability [3]: 4%; clearance [7]: 49.2 mL/min/kg
12 | Cc1cc(C)cc(-c2[nH]c3ccc(C(C)(C)C(=O)N4C5CCC4CC5)cc3c2[C@H](C)CNCCCCc2ccncc2)c1 | – | – | half-life [6]: 9.5 h; F (Canis familiaris [9]): 23% and 11%; clearance [7]: 26.5 mL/min/kg
13 | Cc1cc(C)cc(-c2[nH]c3ccc(C(C)(C)C(=O)N4C5CCC4CC5)cc3c2[C@H](C)CNCCc2ccc3[nH]c(C)nc3c2)c1 | 13 nM | 0.4 nM | IC50 (Cytochrome P450 3A4 [5]): 5000 nM
14 | Cc1cc(C)cc(-c2[nH]c3ccc(C(C)(C)C(=O)N4C5CCC4CC5)cc3c2[C@H](C)CNCCCc2ccnc3nc(C)ccc23)c1 | 16.2 nM | 1.1 nM | –
15 | Cc1cc(C)cc(-c2[nH]c3ccc(C(C)(C)C(=O)N4C5CCC4CC5)cc3c2[C@H](C)CNCCCc2cccc3cnccc23)c1 | 5 nM | 0.9 nM | –
16 | Cc1cc(C)cc(-c2[nH]c3ccc(C(C)(C)C(=O)N4C5CCC4CC5)cc3c2[C@H](C)CNCCCCc2ccc3cnccc3c2)c1 | 5.8 nM | 3.6 nM | –
17 | Cc1cc(C)cc(-c2[nH]c3ccc(C(C)(C)C(=O)N4C5CCC4CC5)cc3c2[C@H](C)CNCCCCc2ccc3ncccc3c2)c1 | 11.5 nM | 1.1 nM | –
18 | Cc1cc(C)cc(-c2[nH]c3ccc(C(C)(C)C(=O)N4C5CCC4CC5)cc3c2[C@H](C)CNCCCCc2cnc3nccnc3c2)c1 | 7.9 nM | 0.4 nM | –
19 | Cc1cc(C)cc(-c2[nH]c3ccc(C(C)(C)C(=O)N4C5CCC4CC5)cc3c2[C@H](C)CNCCCCc2cncc3ccccc23)c1 | 10.2 nM | 2.1 nM | –
20 | Cc1cc(C)cc(-c2[nH]c3ccc(C(C)(C)C(=O)N4C5CCC4CC5)cc3c2[C@H](C)CNCc2cccc3ncccc23)c1 (stereo in doubt; 27a) | 420 nM | 27.5 nM | –
21 | Cc1cc(C)cc(-c2[nH]c3ccc(C(C)(C)C(=O)N4C5CCC4CC5)cc3c2[C@H](C)CNCc2cccc3ncccc23)c1 (stereo in doubt; 27b) | 315 nM | 15.3 nM | –

Now from value to compound, other results behind:

Row | IC50 [1] | IC50 [2] | Compound | also measured
22 | 2.8 nM | 0.6 nM | Cc1cc(C)cc(-c2[nH]c3ccc(C(C)(C)C(=O)N4CC5CCC4CC5)cc3c2[C@H](C)CNCCc2cnc3nn[nH]c3c2)c1 | –
23 | – | 0.6 nM | Cc1cc(C)cc(-c2[nH]c3ccc(C(C)(C)C(=O)N4CC5CCC4CC5)cc3c2[C@H](C)CNCCc2ccc3[nH]c(=O)[nH]c3c2)c1 | bioavailability [3]: 5%; IC50 [4]: 2 nM
24 | 7.6 nM | 0.3 nM | COC(=O)c1nc2ccc(CCNC[C@@H](C)c3c(-c4cc(C)cc(C)c4)[nH]c4ccc(C(C)(C)C(=O)N5CC6CCC5CC6)cc34)cc2[nH]1 | –
25 | 4.5 nM | 0.3 nM | Cc1cc(C)cc(-c2[nH]c3ccc(C(C)(C)C(=O)N4CC5CCC4CC5)cc3c2[C@H](C)CNCCc2ccc3nc[nH]c3c2)c1 | bioavailability [3]: 63%; IC50 (Cytochrome P450 3A4 [5]): 100 nM
26 | 2.6 nM | 0.4 nM | Cc1cc(C)cc(-c2[nH]c3ccc(C(C)(C)C(=O)N4C5CCC4CC5)cc3c2[C@H](C)CNCCc2ccc3nc[nH]c3c2)c1 | –
27 | 2.5 nM | 0.3 nM | Cc1cc(C)cc(-c2[nH]c3ccc(C(C)(C)C(=O)N4CC5CCC4CC5)cc3c2[C@H](C)CNCCc2ccc3nn[nH]c3c2)c1 | half-life [6]: 7.2 h; bioavailability [3]: 20%; clearance [7]: 5 mL/min/kg
28 | 101 nM | 0.9 nM | Cc1cc(C)cc(-c2[nH]c3ccc(C(C)(C)C(=O)N4CC5CCC4CC5)cc3c2[C@H](C)CNCCc2ccc3[nH]c(C(F)(F)F)nc3c2)c1 | IC50 (Cytochrome P450 3A4 [5]): > 10000 nM
29 | 9 nM | 0.3 nM | Cc1cc(C)cc(-c2[nH]c3ccc(C(C)(C)C(=O)N4C5CCC4CC5)cc3c2[C@H](C)CNCCc2ccc3ocnc3c2)c1 | –
30 | 27.9 nM | 0.7 nM | Cc1cc(C)cc(-c2[nH]c3ccc(C(C)(C)C(=O)N4CC5CCC4CC5)cc3c2[C@H](C)CNCCc2ccc3[nH]c(=O)[nH]c3c2F)c1 | –
31 | 11.4 nM | 0.5 nM | Cc1cc(C)cc(-c2[nH]c3ccc(C(C)(C)C(=O)N4CC5CCC4CC5)cc3c2[C@H](C)CNCCc2ccc3nsnc3c2)c1 | IC50 (Cytochrome P450 3A4 [8]): 1000 nM
32 | 43.9 nM | 16.5 nM | Cc1cc(C)cc(-c2[nH]c3ccc(C(C)(C)C(=O)N4CC5CCC4CC5)cc3c2[C@H](C)CNCc2ccc3nc[nH]c3c2)c1 | –
33 | 2 nM | 0.6 nM | Cc1cc(C)cc(-c2[nH]c3ccc(C(C)(C)C(=O)N4C5CCC4CC5)cc3c2[C@H](C)CNCCc2ccc3[nH]nnc3c2)c1 | half-life [6]: 2.7 h; bioavailability [3]: 37%; clearance [7]: 37 mL/min/kg
34 | 2 nM | 0.4 nM | Cc1cc(C)cc(-c2[nH]c3ccc(C(C)(C)C(=O)N4C5CCC4CC5)cc3c2[C@H](C)CNCCc2ccc3ncoc3c2)c1 | IC50 (Cytochrome P450 3A4 [8]): 1000 nM
35 | 5 nM | 0.7 nM | Cc1cc(C)cc(-c2[nH]c3ccc(C(C)(C)C(=O)N4CC5CCC4CC5)cc3c2[C@H](C)CNCCc2ccc3[nH]c(CO)nc3c2)c1 | –
36 | 6.5 nM | 0.4 nM | Cc1cc(C)cc(-c2[nH]c3ccc(C(C)(C)C(=O)N4CC5CCC4CC5)cc3c2[C@H](C)CNCCc2ccc3nc(C(=O)O)[nH]c3c2)c1 | F (Canis familiaris [10]): Not Active; clearance [7]: 24.6 mL/min/kg
37 | 4.5 nM | 0.3 nM | Cc1cc(C)cc(-c2[nH]c3ccc(C(C)(C)C(=O)N4CC5CCC4CC5)cc3c2[C@H](C)CNCCc2c[nH]c3ncnc-3c2)c1 | bioavailability [3]: 16%; IC50 (Cytochrome P450 3A4 [5]): 4000 nM
38 | 3.9 nM | 0.6 nM | Cc1cc(C)cc(-c2[nH]c3ccc(C(C)(C)C(=O)N4CC5CCC4CC5)cc3c2[C@H](C)CNCCc2ccc3ncoc3c2)c1 | –
39 | 1.5 nM | 1.1 nM | Cc1cc(C)cc(-c2[nH]c3ccc(C(C)(C)C(=O)N4CC5CCC4CC5)cc3c2[C@H](C)CNCCc2ccc3[nH]ncc3c2)c1 | –
